Reference: ChEMBL document CHEMBL5331058, “Review of bioactivity and structure-activity relationship on baicalein (5,6,7-trihydroxyflavone) and wogonin (5,7-dihydroxy-8-methoxyflavone) derivatives: Structural modifications inspired from flavonoids in Scutellaria baicalensis” (Eur J Med Chem, 2022)
Converted amounts (≈) assume the structure as drawn.

Key:
[1] = test system: SH-SY5Y; experiment: Neuroprotective activity against H2O2-induced cell damage in human SH-SY5Y cells assessed as cell viability preincubated for 36 hrs followed by H2O2 addition and measured after 12 hrs by MTT assay; assay type: functional, cell-based
[2] = test system: SH-SY5Y; experiment: Neuroprotective activity against H2O2-induced cell damage in human SH-SY5Y cells assessed as reduction in cell viability preincubated for 36 hrs followed by H2O2 addition and measured after 12 hrs by MTT assay; assay type: functional, cell-based
[3] = molecular target: Thymic stromal lymphopoietin (Homo sapiens) (UniProt Q969D9); experiment: Inhibition of N-terminal FLAG tagged/C-terminal 6 His tagged human TSLP at 1 uM preincubated for 2 hrs followed by compound addition and measured after 18 hrs by ELISA method relative to control; conditions: time 20.0 hrs
[4] = test system: HGC-27; experiment: Antiproliferative activity against human HGC-27 cells assessed as reduction in cell viability incubated for 48 hrs by MTT assay; assay type: functional, cell-based; conditions: HGC-27, 48 h
[5] = test system: MGC-803; experiment: Antiproliferative activity against human MGC-803 cells assessed as reduction in cell viability incubated for 48 hrs by MTT assay; assay type: functional, cell-based; conditions: MGC-803, 48 h
[6] = Antioxidant activity assessed as DPPH radical scavenging activity; assay type: functional
[7] = Aqueous solubility of compound by UV spectroscopy method; assay type: physicochemical; conditions: water
[8] = test system: PC-12; experiment: Cytotoxicity against H2O2-induced cell damage in rat PC12 cells assessed as reduction in cell viability at 50 uM incubated for 24 hrs by MTT assay relative to control; assay type: functional
[9] = test system: PC-12; experiment: Antioxidant activity in H2O2-induced cell damage in rat PC12 cells at 50 uM; assay type: functional
[10] = Permeability of the compound across blood brain barrier at pH 7.4 incubated for 4 hrs by parallel artificial membrane permeation assay; assay type: ADME; conditions: pampa, pH 7.4, 4 h
[11] = molecular target: T1, Acetylcholinesterase (Rattus norvegicus, UniProt P37136); experiment: Inhibition of rat cortex homogenate AChE preincubated for 5 mins followed by compound addition and measured after 15 mins by Ellman's method
T1 sequence (P37136 whole entry): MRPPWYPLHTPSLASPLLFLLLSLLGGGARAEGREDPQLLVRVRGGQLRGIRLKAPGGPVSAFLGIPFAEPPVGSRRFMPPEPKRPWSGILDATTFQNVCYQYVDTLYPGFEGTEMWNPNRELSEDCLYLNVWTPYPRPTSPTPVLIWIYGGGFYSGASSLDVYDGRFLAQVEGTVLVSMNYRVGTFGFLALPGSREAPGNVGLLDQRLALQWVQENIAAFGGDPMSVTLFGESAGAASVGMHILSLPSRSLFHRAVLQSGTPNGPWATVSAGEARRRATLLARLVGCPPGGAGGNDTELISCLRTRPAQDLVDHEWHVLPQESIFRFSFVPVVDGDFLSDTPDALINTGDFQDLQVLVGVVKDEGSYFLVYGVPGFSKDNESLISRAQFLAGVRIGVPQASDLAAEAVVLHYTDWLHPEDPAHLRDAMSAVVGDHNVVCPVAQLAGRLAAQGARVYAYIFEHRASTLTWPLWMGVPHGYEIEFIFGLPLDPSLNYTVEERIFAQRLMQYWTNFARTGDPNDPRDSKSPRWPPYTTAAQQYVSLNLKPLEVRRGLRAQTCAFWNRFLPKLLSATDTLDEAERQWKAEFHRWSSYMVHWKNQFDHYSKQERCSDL

[12] = molecular target: Butyrylcholinesterase (Rattus norvegicus, UniProt Q9JKC1); experiment: Inhibition of rat serum homogenate BuChE preincubated for 5 mins followed by compound addition and measured after 15 mins by Ellman's method; assay type: cell-free
[13] = molecular target: T2, Acetylcholinesterase (Homo sapiens, UniProt P22303); experiment: Inhibition of human AChE
[14] = molecular target: Amyloid-beta precursor protein (Homo sapiens) (UniProt P05067); experiment: Inhibition of self-induced amyloid beta (unknown origin) aggregation relative to control; conditions: concentration not given here
[15] = molecular target: Amyloid-beta precursor protein (Homo sapiens) (UniProt P05067); experiment: Inhibition of Cu2+ induced amyloid beta (unknown origin) aggregation relative to control; conditions: concentration not given here
[16] = molecular target: Amyloid-beta precursor protein (Homo sapiens) (UniProt P05067); experiment: Disaggregation of self-induced amyloid beta (unknown origin) fibrils relative to control
[17] = molecular target: Acetylcholinesterase (Electrophorus electricus, UniProt O42275); experiment: Inhibition of electric eel AChE
[18] = molecular target: Amyloid-beta precursor protein (Homo sapiens) (UniProt P05067); experiment: Disaggregation of Cu2+ induced amyloid beta (unknown origin) fibrils relative to control
[19] = molecular target: T2, Acetylcholinesterase; experiment: Inhibition of AChE (unknown origin)
[20] = test system: Candida albicans; experiment: Antifungal activity against Candida albicans assessed as reduction in fungal growth incubated for 16 hrs by microdilution method; assay type: functional
[21] = test system: Staphylococcus aureus; experiment: Antibacterial activity against Staphylococcus aureus assessed as bacterial growth inhibition incubated for 16 hrs; assay type: functional
[22] = test system: Escherichia coli; experiment: Antibacterial activity against Escherichia coli assessed as bacterial growth inhibition; assay type: functional
[23] = test system: Influenza A virus; experiment: Antiviral activity against influenza A virus H1N1 infected in MDCK cells assessed as reduction in virus induced cytopathic effect by CPE assay; assay type: functional, organism-based
[24] = molecular target: T3, Alpha glucosidase (Homo sapiens, UniProt O43451+P10253+P14410+Q2M2H8); experiment: Inhibition of alpha glucosidase (unknown origin); assay type: protein assay
[25] = test system: DU-145; experiment: Anticancer activity against human DU-145 cells assessed as inhibition of cell growth at 100 uM by colorimetric MTT assay relative to control; assay type: functional; parameters: scale not given: the % may be the effect or the level left
[26] = test system: HepG2; experiment: Antitumor activity against human HepG2 cells assessed as reduction in cell viability at 25 uM by colorimetric MTT assay relative to control; assay type: functional
[27] = molecular target: T3, Alpha glucosidase; experiment: Inhibition of alpha glucosidase (unknown origin) spectrophotometric analysis; assay type: protein assay
[28] = molecular target: T2, Acetylcholinesterase; experiment: Inhibition of human AChE by Ellman's spectrophotometric method

T2 sequence (P22303 whole entry): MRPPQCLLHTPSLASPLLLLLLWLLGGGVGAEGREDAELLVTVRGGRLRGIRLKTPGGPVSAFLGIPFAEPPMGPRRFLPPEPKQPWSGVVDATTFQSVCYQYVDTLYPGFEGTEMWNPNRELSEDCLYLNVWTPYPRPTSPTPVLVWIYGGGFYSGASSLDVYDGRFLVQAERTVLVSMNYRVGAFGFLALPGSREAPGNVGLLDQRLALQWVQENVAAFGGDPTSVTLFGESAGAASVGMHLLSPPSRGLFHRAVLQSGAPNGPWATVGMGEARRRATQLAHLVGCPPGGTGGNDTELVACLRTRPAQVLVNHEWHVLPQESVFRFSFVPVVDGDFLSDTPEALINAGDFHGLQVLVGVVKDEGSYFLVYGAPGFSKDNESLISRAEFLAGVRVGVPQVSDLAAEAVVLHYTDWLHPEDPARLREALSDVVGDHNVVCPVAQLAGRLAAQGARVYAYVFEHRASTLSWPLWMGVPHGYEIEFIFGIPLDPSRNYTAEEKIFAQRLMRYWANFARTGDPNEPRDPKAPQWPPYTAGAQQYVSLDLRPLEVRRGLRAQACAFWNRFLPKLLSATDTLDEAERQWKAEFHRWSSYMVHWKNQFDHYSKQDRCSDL
Amyloid-beta precursor protein (Homo sapiens), sequence (P05067 whole entry): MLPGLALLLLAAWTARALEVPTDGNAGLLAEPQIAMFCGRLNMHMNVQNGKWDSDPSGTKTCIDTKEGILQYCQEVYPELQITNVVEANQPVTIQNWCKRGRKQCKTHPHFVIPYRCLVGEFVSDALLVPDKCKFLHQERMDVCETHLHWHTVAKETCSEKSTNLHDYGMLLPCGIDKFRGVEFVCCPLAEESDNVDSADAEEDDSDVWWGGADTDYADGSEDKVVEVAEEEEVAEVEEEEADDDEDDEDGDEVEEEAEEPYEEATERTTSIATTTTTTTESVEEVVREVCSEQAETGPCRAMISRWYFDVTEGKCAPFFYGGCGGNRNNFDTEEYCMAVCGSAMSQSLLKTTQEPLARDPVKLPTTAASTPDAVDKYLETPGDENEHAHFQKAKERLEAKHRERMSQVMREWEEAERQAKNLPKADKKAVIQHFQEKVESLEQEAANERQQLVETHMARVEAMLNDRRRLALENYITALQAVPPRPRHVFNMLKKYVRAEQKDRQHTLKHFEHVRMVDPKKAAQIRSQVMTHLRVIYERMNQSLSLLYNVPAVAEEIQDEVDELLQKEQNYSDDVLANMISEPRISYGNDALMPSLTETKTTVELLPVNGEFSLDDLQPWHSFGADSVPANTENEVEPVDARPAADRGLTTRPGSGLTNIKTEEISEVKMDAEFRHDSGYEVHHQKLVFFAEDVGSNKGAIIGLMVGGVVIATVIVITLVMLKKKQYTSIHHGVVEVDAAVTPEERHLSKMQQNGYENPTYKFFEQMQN
Acetylcholinesterase (Electrophorus electricus, UniProt O42275), sequence (O42275 whole entry): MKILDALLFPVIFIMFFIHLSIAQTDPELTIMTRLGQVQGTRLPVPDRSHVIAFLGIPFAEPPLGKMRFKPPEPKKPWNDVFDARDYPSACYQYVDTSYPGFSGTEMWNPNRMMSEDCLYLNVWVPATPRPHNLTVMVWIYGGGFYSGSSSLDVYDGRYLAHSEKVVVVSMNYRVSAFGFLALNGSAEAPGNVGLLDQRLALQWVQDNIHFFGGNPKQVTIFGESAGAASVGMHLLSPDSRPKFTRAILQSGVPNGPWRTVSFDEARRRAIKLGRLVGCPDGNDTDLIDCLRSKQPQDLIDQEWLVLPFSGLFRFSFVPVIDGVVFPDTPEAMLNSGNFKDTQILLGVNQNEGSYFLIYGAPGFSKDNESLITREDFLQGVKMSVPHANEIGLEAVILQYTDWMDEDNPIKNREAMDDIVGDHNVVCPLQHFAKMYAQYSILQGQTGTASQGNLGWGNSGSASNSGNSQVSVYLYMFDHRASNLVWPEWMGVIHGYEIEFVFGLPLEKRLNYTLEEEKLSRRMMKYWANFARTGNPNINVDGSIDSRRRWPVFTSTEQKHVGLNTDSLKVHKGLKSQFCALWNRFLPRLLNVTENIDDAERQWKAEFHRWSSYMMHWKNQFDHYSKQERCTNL
Butyrylcholinesterase, sequence (Q9JKC1 whole entry): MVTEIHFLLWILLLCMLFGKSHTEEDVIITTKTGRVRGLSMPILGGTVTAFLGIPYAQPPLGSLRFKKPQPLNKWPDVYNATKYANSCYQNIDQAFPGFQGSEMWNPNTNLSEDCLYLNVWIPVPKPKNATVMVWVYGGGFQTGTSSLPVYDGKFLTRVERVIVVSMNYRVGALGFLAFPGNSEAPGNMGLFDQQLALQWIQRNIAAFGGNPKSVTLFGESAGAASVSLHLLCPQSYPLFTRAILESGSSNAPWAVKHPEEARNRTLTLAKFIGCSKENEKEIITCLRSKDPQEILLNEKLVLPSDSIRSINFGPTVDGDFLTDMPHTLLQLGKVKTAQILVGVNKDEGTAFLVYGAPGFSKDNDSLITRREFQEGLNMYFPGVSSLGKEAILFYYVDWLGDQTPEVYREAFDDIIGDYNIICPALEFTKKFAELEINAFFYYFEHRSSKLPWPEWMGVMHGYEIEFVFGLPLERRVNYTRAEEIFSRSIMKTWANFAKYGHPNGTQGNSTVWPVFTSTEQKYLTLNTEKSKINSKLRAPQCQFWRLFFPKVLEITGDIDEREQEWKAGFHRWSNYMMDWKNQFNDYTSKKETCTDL
Thymic stromal lymphopoietin (Homo sapiens), sequence (Q969D9 whole entry): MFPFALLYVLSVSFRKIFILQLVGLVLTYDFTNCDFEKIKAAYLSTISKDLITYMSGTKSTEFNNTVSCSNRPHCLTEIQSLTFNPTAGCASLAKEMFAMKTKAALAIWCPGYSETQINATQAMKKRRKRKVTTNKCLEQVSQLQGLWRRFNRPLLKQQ

## O=C(NC(Cc1ccccc1)C(=O)Oc1c(O)cc2oc(-c3ccccc3)cc(=O)c2c1O)OCc1ccccc1 (stereo not given)
[1]
  EC50: 4.31 µM
[2]
  EC50: 24.8 µM

## O=c1cc(-c2cccc(-c3ccc(O)cc3)c2)oc2cc(O)cc(O)c12
[3]
  inhibition: 77.5%

## COC(=O)c1cc(Br)ccc1OCCCOc1ccc(-c2cc(=O)c3c(OC)c(OC)c(OC)cc3o2)cc1
[4]
  IC50: 10.3 µM
[5]
  IC50: 17.2 µM

## COc1c(O)cc2oc(-c3ccc(O)cc3)cc(=O)c2c1O [HISPIDULIN]
[6]
  IC50: 19.3 µM
[7]
  solubility: 15.3 µg/mL (≈ 51.1 µM)
[8]
  inhibition at 50 µM: 94.2%

## CC(C)N(CCOc1c(O)cc2oc(-c3ccc(O)cc3)cc(=O)c2c1O)C(C)C
[9]
  Activity: 72.12%

## CN1C(=O)[C@@H](Cc2ccc(NC(=O)[C@H]3O[C@@H](Oc4cc5oc(-c6ccccc6)cc(=O)c5c(O)c4O)[C@H](O)[C@@H](O)[C@@H]3O)cc2)NC(=O)[C@H]1Cc1ccc2ccccc2c1
[10]
  BBB: 7.22%

## CCN(CC)C(=O)Oc1ccc(-c2cc(=O)c3c(O)c(OC)c(OC)cc3o2)cc1
[11]
  IC50: 1.2 µM
[12]
  IC50: 22.1 µM

## CCN(C)C(=O)Oc1ccc(-c2cc(=O)c3c(O)c(O)c(OC(=O)N[C@@H](Cc4ccccc4)C(=O)OC(C)(C)C)cc3o2)cc1
[13]
  IC50: 7.91 µM
[14]
  inhibition: 89.2%
[15]
  inhibition: 86.2%
[16]
  Activity: 84.2%
[17]
  IC50: 6.01 µM
[18]
  Activity: 78.7%
[19]
  IC50: 4.73 µM

## CC(C)=CCCC(C)CCOC(=O)[C@H]1O[C@@H](Oc2cc3oc(-c4ccccc4)cc(=O)c3c(O)c2O)[C@H](O)[C@@H](O)[C@@H]1O (stereo not given in full)
[20]
  MIC: 400 µM (≈ 234 µg/mL)
[21]
  MIC: 800 µM (≈ 468 µg/mL)
[22]
  MIC: 3200 µM (≈ 1870 µg/mL)

## COc1c(O)cc2oc(-c3ccccc3Br)cc(=O)c2c1O
[23]
  EC50: 4 µM

## COc1c(C(C)c2ccc(O)cc2O)cc2oc(-c3ccccc3)cc(=O)c2c1O (stereo not given)
[24]
  IC50: 39.21 µM

## COc1cc2oc(-c3ccc(N)cc3)cc(=O)c2c(OC)c1OC
[25]
  Activity: 60%
[26]
  Activity: <2%

## COc1c(O)cc2oc(-c3cccc(Br)c3)cc(=O)c2c1O
[23]
  EC50: 4.5 µM

## CCN(CCCCOc1ccc(-c2cc(=O)c3c(O)c(OC)c(OC)cc3o2)cc1)Cc1ccccc1OC
[27]
  IC50: 25.78 µM

## CC(c1cc(O)c2c(=O)cc(-c3ccccc3)oc2c1)c1ccc(O)cc1O (stereo not given)
[24]
  IC50: 44.11 µM

## COc1cc2oc(-c3ccc(NCCNc4c5c(nc6cc(Cl)ccc46)CCCC5)cc3)cc(=O)c2c(OC)c1OC
[28]
  IC50: 4.73 µM
